Entries after “also recorded” stand apart in the source; their conditions may differ.
Experiments:
mitochondrial complex 1 = assay: Seahorse OCR inhibition of PPV derivatives, normalized to PPV; type: cell-based
Method: FIGS. 7A-7D show OCR and cellular toxicity data. […]. Bars represent mean OCR and PDE10 inhibitory activities from at least 5 (OCR) or 3 (PDE) replicates. All experiments were repeated at least twice. […] Values are mean+−SEM.
(§1) Seahorse analysis of the OCR. Oxygen consumption rate (OCR) was measured using Seahorse XF96 Flux Analyzer (Agilent Technologies). The cells were seeded to attach overnight, wells were washed with pre-warmed XF Calibrant (Agilent Technologies) and the replaced with unbuffered Assay Medium (pH 7.4, 5 mM glucose, 1 mM L-glutamine). The plates were incubated at 37° C. in a CO2-free incubator for 2 hours prior to assay. For succinate rescue assay, cells were permeabilized using XF Plasma Membrane Permeabilizer Reagent (XF PMP, Agilent Technologies) according to the manufacturer's instructions. The OCR rate was measured in 1× Mitochondrial Assay Solution (MAS) (70 mM sucrose, 220 mM mannitol, 10 mM KH2PO4, 5 mM MgCl2, 2 mM Hepes, 0.6% (w/v) fatty acid-free BSA and 1 mM EGTA; pH 7.4). After baseline oxygenation was established, 1 μM rotenone or 10 μM PPV was injected at time A, followed by 5 mM succinate at time B. Error bars represent standard deviation. For the washout experiment, EO771 cells were seeded overnight, then treated with 10 μM PPV or 1 μM rotenone 3 hours prior to OCR measurement. Media was replaced 1 and 2 hours before measurement and OCR reported.
Because PPV's effect on mitochondrial function is independent of cAMP levels it was reasoned that there are two activities in PPV, one inhibiting complex 1 and one inhibiting PDE10A that may reside in different parts of the molecule. The structure activity relationship of PPV relative to two assays was assessed: inhibition of cellular OCR by Seahorse, and inhibition of PDE10A by purified enzyme activity in multiwell plate (PDE10A activity assay kit, BPS Bioscience). Because PPV can compete with rotenone as complex 1 inhibitors, it was reasoned that they may be binding the same site and therefore the structures would be similar relative to the mitochondrial binding target. […] Because the top was a planar structure similar to that of rotenone, and they compete with each other for the same binding pocket on complex 1 (FIG. 10) the lower portion of the molecule and how it may resemble rotenone were investigated in more detail. It was established that flexible linkage was preferred for mitochondrial activity and bulky adducts to the lower benzene ring may block it (FIG. 7C). […] These lead compounds were synthesized from commercial precursors and purified on silica gel column. Structures were confirmed by ^1H NMR and found to be >95% pure by HPLC.

[1] = system: A549 NDUFV1 KO NDI1 cells; type: cell-based, Human; settings: 10 μM papaverine or 1 μM rotenone
[2] = system: oxygen consumption (mitochondrial function); assay: Seahorse XF analysis of oxygen consumption in vitro, cell line not stated; type: cell-based
Method: as §1

A549 cells [3] = assay: Trypan blue cell viability of A549 cells in normoxia and hypoxia; type: cell-based, Human; settings: 100 μM papaverine, 72 h
Method: FIGS. 2A-2D are OCR measurements and cell viability assessments. FIG. 2A-2B are representative of OCR measurement in competition assay between PPV and complex I inhibitors piericidin A (FIG. 2A) and capsaicin (FIG. 2B). Values represent the means+−SD. FIGS. 2C-2D show trypan blue cell viability assessment (of n=3) of A549 cells treated with 100 μM papaverine or 1 μM rotenone in normoxia (FIG. 2C) and hypoxia (FIG. 2D) (T=72 h). Bar charts represent mean of viable cells in duplicates+−standard deviation.
Experimental: Cell lines. All cell lines were purchased from the American Type Culture Collection (ATCC) and grown DMEM (Corning) supplemented with 10% FBS (Seradigm) and 1% Penicillin/Streptomycin (Fisher Bioreagents) at 37° C. in 5% CO2. Cells were treated with inhibitors papaverine hydrochloride (Sigma-Aldrich), rotenone (Sigma-Aldrich), piericidin A (Santa Cruz), capsaicin (Sigma-Aldrich), antimycin A (Sigma-Aldrich) and succinic acid disodium salt (Sigma-Aldrich). Cell viability was assessed by trypan blue exclusion.

A549 cells [4] = assay: In vitro radiation survival (colony formation) of A549 cells; type: cell-based, Human
Method: FIGS. 4A-4G show tumor growth before and after radiosensitization with PPV. FIG. 4A-4B show in vitro radiation survival assessment of A549 cell line treated with […] PPV in normoxia (FIG. 4A) and anoxia (FIG. 4B). Normoxic cells were irradiated in triplicates on a cell culture dish, anoxic cells were irradiated in high density suspension after sealing with mineral oil 45 minutes before radiation. Values represent averaged colony counts+−standard deviation. FIG. 4C show quantification of tumor growth delay in orthotopic EO771 tumors gown in C57B16 mice receiving either 5 Gy XRT (magenta) or 2 mg/kg PPV 35 minutes prior to 5 Gy XRT (blue) (n=3-4). Values are mean tumor volumes+−SEM. […] Values are mean tumor volumes+−SEM. FIG. 4E-4F show tumor growth delay. When tumors reached 4-fold volume increase, groups receiving no treatment or PPV only (FIG. 4E); and XRT only or PPV followed by XRT (FIG. 4F), tumor weights were compared. Values are mean tumor weights+−SEM (n=8). P values were calculated with two-tailed two-sample t test. FIG. 4G are related to FIG. 4E-4F tumor growth delay.
A549 cells in suspension were treated with 5 μM PPV for one hour prior to radiation and plating in fresh media for colony formation post radiation. (N=2 experiments performed in triplicate). […]

C57BL/6 mice = assay: Acute toxicity, IV to isoflurane-anesthetized mice
Method: Bar graphs represent the mean area covered by pimonidazole-positive cells evaluated from 20 images per animal+−standard error of the mean. P value was calculated against control with two-tailed two-sample t test. […] Mean volumes+−SEM. P values were calculated against XRT with two-tailed two-sample t test. *P<0.05; **P<0.01; ***P<0.001; ****P<0.0001; n.s., not significant.
Reducing any possible adverse effects of PPV given to cancer patients if it is being used as a radiosensitizer are needed. PDE10A inhibition can cause systemic vascular effects which can result in a drop in blood pressure and increase in heart rate as vessels become more compliant. This acute drop in blood pressure produces a physiological compensation where the individual's heart rate and breathing rate rise to maintain tissue perfusion. If the effect on systemic vasculature was too great, this could lead to cardiovascular collapse and rapid death. Acute toxicity of PPV, SMV23 and SMV32 given IV to mice under anesthesia with 2% isoflurane was determined. Isoflurane delivered in medical air was used so that the effects on tumor oxygenation was reduced, although isoflurane can depress respiration and is typically given in 100% oxygen.

**Q.** For `COc1cc2ccnc(Cc3cccc4ccccc34)c2cc1OC` [SMV-32], which “activity in cellular OCR assay” value (mitochondrial complex 1; Seahorse) is on record?
**A.** approaching that of rotenone

**Q.** And the “Inhibitory activity OCR % of PPV” value (mitochondrial complex 1; Seahorse, OCR inhibition at 10 μM concentration, normalized to PPV)?
**A.** 159.3 % of PPV

**Q.** What about the “complex 1 activity compared to PPV” value (mitochondrial complex 1; compared to PPV) of the same molecule?
**A.** 160%

**Q.** Which “response of mitochondria (OCR) to drug” value [1] does the source give for `COc1ccc(Cc2nccc3cc(OC)c(OC)cc23)cc1OC` [PPV, papaverine] here?
**A.** resistant

**Q.** And the “inhibition of oxygen consumption / mitochondrial function in vitro” value [2]?
**A.** effective at inhibiting oxygen consumption

**Q.** And the “cellular toxicity in normoxia or hypoxia in vitro” value (A549 cells [3])?
**A.** no cellular toxicity

**Q.** What about the “colony survival after radiation” value (A549 cells [4]; 5 μM papaverine for one hour prior to radiation) of the same molecule?
**A.** did not have any effect on colony survival; also recorded: not an inherent radiosensitizer

**Q.** And the “surviving fraction of irradiated cells” value (A549 cells [4]; 10 μM PPV, normoxia and anoxia)?
**A.** did not change the surviving fraction

**Q.** And the “time to death after delivery” value (C57BL/6 mice; 6 mg/kg IV bolus)?
**A.** ≤ 5 min

**Q.** What about the Survivors (C57BL/6 mice; 6 mg/kg IV, 2% isoflurane in medical air) of the same molecule?
**A.** 0/3

**Q.** And the “acute toxicity” value (C57BL/6 mice; rapid 6 mg/kg IV bolus, isoflurane-anesthetized mice)?
**A.** toxic, with significant gasping of mice, convulsions and death

— US20210163453A1, “DERIVATIVES OF PAPAVERINE THAT ARE EFFECTIVE HYPOXIC TUMOR RADIOSENSITIZERS” (Ohio State Innovation Foundation, priority 2018, published 2021)
